From patent US11787810B2, “Diacylglyceride O-acyltransferase 2 inhibitors” (Merck Sharp & Dohme Corp., priority 2020, dated 2023) come the findings set out here.

pIC50: −log10 of the molar value.

Chain of human DGAT2 (hDGAT2) (Q96PD7 whole entry): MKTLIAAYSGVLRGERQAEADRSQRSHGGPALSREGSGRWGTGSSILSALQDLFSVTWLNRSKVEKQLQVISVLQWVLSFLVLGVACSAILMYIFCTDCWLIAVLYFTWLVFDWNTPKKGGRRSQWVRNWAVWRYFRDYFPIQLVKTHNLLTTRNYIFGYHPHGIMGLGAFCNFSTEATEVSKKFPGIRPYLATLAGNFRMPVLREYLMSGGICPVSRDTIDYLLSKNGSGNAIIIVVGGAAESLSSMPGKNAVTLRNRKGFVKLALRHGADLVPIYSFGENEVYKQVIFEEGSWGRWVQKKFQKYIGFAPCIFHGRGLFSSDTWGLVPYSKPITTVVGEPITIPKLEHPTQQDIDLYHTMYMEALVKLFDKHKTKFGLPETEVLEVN

The assay has as its target human DGAT2 (hDGAT2) (Homo sapiens (Human), UniProt Q96PD7). As to the kind of experiment: DGAT2 enzymatic activity assay (13C18-triolein formation, LC/MS/MS). Particulars: hDGAT2 Sf-9 membrane prep, 25 μM diolein, 5 μM 13C oleoyl-CoA; read-out: Human DGAT2 IC50. Type of assay: biochemical. The procedure, abridged:
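Membranes from Sf-9 cells expressing untagged human DGAT2 (8 ng/μL) incubated at rt with 25 μM diolein and 5 μM 13C oleoyl-CoA in pH 7.0 Tris buffer, 20 mM MgCl2, 5% ethanol. 13C18-triolein quantified by LC/MS/MS against 13C21-triolein internal standard; IC50 from 4-parameter sigmoidal fit.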
Regarding `C[C@]1(NC(=O)c2cnc3c(-c4cccc(OC(F)F)c4)nn(-c4ccc(F)cc4)c3c2)CCS(=O)(=O)C1` [Example 1, (S)-3-(3-(difluoromethoxy)phenyl)-1-(4-fluorophenyl)-N-(3-methyl-1,1-dioxidotetrahydrothiophen-3-yl)-1H-pyrazolo[4,3-b]pyridine-6-carboxamide], the pIC50 (in general, −log10 of the IC50, conventionally taken in molar units) is 9.10.

With `O=C(N[C@@H]1CCC[C@H]1N1CCOCC1)c1cnc2c(-c3cccc(OC(F)F)c3)cn(-c3ncc(F)cn3)c2c1` [Example 7, 3-(3-(difluoromethoxy)phenyl)-1-(5-fluoropyrimidin-2-yl)-N-((1R,2R)-2-morpholinocyclopentyl)-1H-pyrrolo[3,2-b]pyridine-6-carboxamide], the pIC50 was 7.35.

Consider `C[C@]1(NC(=O)c2cnc3c(-c4cccc(OC(F)F)c4)cn(-c4ccc(F)cc4)c3c2)CCS(=O)(=O)C1` [Example 9, (S)-3-(3-(difluoromethoxy)phenyl)-1-(4-fluorophenyl)-N-(3-methyl-1,1-dioxidotetrahydrothiophen-3-yl)-1H-pyrrolo[3,2-b]pyridine-6-carboxamide], for which the pIC50 is 8.17.

In the case of `N[C@H]1CCC[C@H]1NC(=O)c1cnc2c(-c3cccc(OC(F)F)c3)cn(-c3ncc(F)cn3)c2c1` [Example 20, N-((1R,2S)-2-aminocyclopentyl)-3-(3-(difluoromethoxy)phenyl)-1-(5-fluoropyrimidin-2-yl)-1H-pyrrolo[3,2-b]pyridine-6-carboxamide], the pIC50 is 6.72.

Turning to `C[C@]1(NC(=O)c2cnc3c(-c4cccc(OC(F)F)c4)cn(-c4ccc(F)cc4)c3n2)CCS(=O)(=O)C1` [Example 24, (S)-7-(3-(difluoromethoxy)phenyl)-5-(4-fluorophenyl)-N-(3-methyl-1,1-dioxidotetrahydrothiophen-3-yl)-5H-pyrrolo[2,3-b]pyrazine-3-carboxamide], the pIC50 was 7.30.

With `CC(C)n1nc(-c2cccc(OC(F)F)c2)c2ncc(C(=O)NC3(C)CS(=O)(=O)C3)cc21` [Example 25, 3-[3-(difluoromethoxy)phenyl]-1-isopropyl-N-(3-methyl-1,1-dioxidothietan-3-yl)-1H-pyrazolo[4,3-b]pyridine-6-carboxamide], the pIC50 was 8.33.

Turning to `CC(C)n1cc(-c2cccc(OC(F)F)c2)c2ncc(C(=O)NC3(C)CS(=O)(=O)C3)cc21` [Example 37, 3-(3-(difluoromethoxy)phenyl)-1-isopropyl-N-(3-methyl-1,1-dioxidothietan-3-yl)-1H-pyrrolo[3,2-b]pyridine-6-carboxamide], the pIC50 is 7.30.

As for `CC(C)n1nc(-c2cccc(OC(F)F)c2)c2ncc(C(=O)NC(C)(C)CO)cc21` [Example 42, 3-(3-(difluoromethoxy)phenyl)-N-(1-hydroxy-2-methylpropan-2-yl)-1-isopropyl-1H-pyrazolo[4,3-b]pyridine-6-carboxamide], the pIC50 is 7.42.

For `CCOc1cc(-c2nn(C(C)C)c3cc(C(=O)NC4(C)CS(=O)(=O)C4)cnc23)c(F)cn1` [Example 126, 3-(2-ethoxy-5-fluoropyridin-4-yl)-1-isopropyl-N-(3-methyl-1,1-dioxidothietan-3-yl)-1H-pyrazolo[4,3-b]pyridine-6-carboxamide], the pIC50 was 7.57.

In the case of `CC(C)n1nc(-c2cccc(C3(O)CC3)c2)c2ncc(C(=O)NC3(C)CS(=O)(=O)C3)cc21` [Example 127, 3-(3-(1-Hydroxycyclopropyl)phenyl)-1-isopropyl-N-(3-methyl-1,1-dioxidothietan-3-yl)-1H-pyrazolo[4,3-b]pyridine-6-carboxamide], the pIC50 was 6.53.

As for `COC1(c2cccc(-c3nn(C(C)C)c4cc(C(=O)NC5(C)CS(=O)(=O)C5)cnc34)c2)CC1` [Example 128, 1-isopropyl-3-(3-(1-methoxycyclopropyl)phenyl)-N-(3-methyl-1,1-dioxidothietan-3-yl)-1H-pyrazolo[4,3-b]pyridine-6-carboxamide], the pIC50 was 5.26.

With `CC1(NC(=O)c2cnc3c(-c4cccc(OC(F)F)c4)nn(C(C)(C)C(C)(C)O)c3c2)CS(=O)(=O)C1` [Example 129, 3-(3-(difluoromethoxy)phenyl)-1-(3-hydroxy-2,3-dimethylbutan-2-yl)-N-(3-methyl-1,1-dioxidothietan-3-yl)-1H-pyrazolo[4,3-b]pyridine-6-carboxamide], the negative logarithm of the IC50 (pIC50) was 7.01.

Regarding `CN1CCC(n2nc(-c3cccc(OC(F)F)c3)c3ncc(C(=O)NC4(C)CS(=O)(=O)C4)cc32)CC1` [Example 134, 3-(3-(Difluoromethoxy)phenyl)-N-(3-methyl-1,1-dioxidothietan-3-yl)-1-(1-methylpiperidin-4-yl)-1H-pyrazolo[4,3-b]pyridine-6-carboxamide], the pIC50 was 7.48.
